Data reported in publication PMC10145367, “Acute and Transgenerational Effects of Non-Steroidal Anti-Inflammatory Drugs on Daphnia magna” (Toxics, 2023).
Values after ≈ are worked out from the molar mass of the structure shown. Read-outs that look alike come from different tables or passages of the source.

Experiments:
Thamnocephalus platyurus = conditions: after 24 h of exposure; ref [3],[5]; cited from earlier work
peptidase (PEP) = assay: Peptidase activity in daphnid homogenate after chronic/transgenerational exposure; assay type: in vivo, Daphnia magna
β-galactosidase (β-gal) = test system: β-galactosidase (β-gal)
Protocol: (§1) Chronic exposure was performed at 1 mg/L of each NSAID and their 1:1 mixture separately, which was selected as a non-lethal concentration. For enzyme activities in chronic and transgenerational exposures, neonates were cultured for two consecutive generations and following a 21-day recovery period (Figure 1B). […] Media and NSAIDs were renewed twice a week. Although the concentration of NSAIDs was not measured throughout the exposure, their renewal twice a week was sufficient to exert their action. […] Daphnids were fed daily with 2 mL fresh algae (C. reinhardtii) with a concentration of 6 million cells/mL, and a seaweed extract (Ascophylum nodosum) was supplemented only on the days of media change.
(§2) Five 7, 14, and 21-day-old animals were used per biological replicate and homogenized in 0.5 mL ddH2O using a pestle homogenizer. The homogenate was cleared by centrifugation (12,000× g for 5 min at 5 °C), and the clear supernatant was collected and used to assess the enzyme activity as described elsewhere. 200 μL appropriately diluted sample in buffer was assessed for the activity of phosphatases (in 100 mM acetic acid pH 4.5 for acid phosphatase or 100 mM boric acid pH 9.8 for alkaline phosphatase) using 50 μL of the substrate p-nitrophenyl phosphate (8 mM) and monitoring the production of p-nitrophenol at 405 nm after its alkalinization (with 50 μL 4M NaOH). In addition, the activities of β-galactosidase and lipase were measured with the same experimental conditions by the generation of nitrophenol from the catalysis of o-nitrophenyl-β-galactoside or p-nitrophenyl butyrate, respectively, but in phosphate buffer pH 7.2. Glutathione-S-transferase (GST) activity was assessed by the reaction of reduced glutathione with 1-chloro-2,4-dinitrobenzene. 200 μL appropriately diluted sample in phosphate buffer pH 7.2 was mixed with 50 μL 2 mM CDNB, and 6 mM reduced glutathione, and the formation of the complex was measured continuously at 340 nm and converted to units of activity with the extinction coefficient. Protein was quantified by an ultrasensitive Bradford protocol to normalize the results.

[1] = test system: alkaline phosphatase (ALP)
Protocol: as §1, §2

[2] = test system: glutathione-S-transferase (GST)
Protocol: as §1, §2

patients = test system: patients; parameters: method as in PMID 26865183; conditions: patients receiving it; ref [11]; cited from earlier work
D. magna = test system: D. magna; parameters: method as in PMID 27234514, PMID 19336980; conditions: after 24 h of exposure; ref [3],[5]; cited from earlier work
lipase (LIP) = assay: Lipase activity in daphnid homogenate after chronic/transgenerational exposure; assay type: in vivo, Daphnia magna
Protocol: (§3) Chronic exposure was performed at 1 mg/L of each NSAID and their 1:1 mixture separately, which was selected as a non-lethal concentration. For enzyme activities in chronic and transgenerational exposures, neonates were cultured for two consecutive generations and following a 21-day recovery period (Figure 1B). […] Media and NSAIDs were renewed twice a week. […] Daphnids were fed daily with 2 mL fresh algae (C. reinhardtii) with a concentration of 6 million cells/mL, and a seaweed extract (Ascophylum nodosum) was supplemented only on the days of media change.
(§4) Five 7, 14, and 21-day-old animals were used per biological replicate and homogenized in 0.5 mL ddH2O using a pestle homogenizer. The homogenate was cleared by centrifugation (12,000× g for 5 min at 5 °C), and the clear supernatant was collected and used to assess the enzyme activity as described elsewhere [28, 41]. 200 μL appropriately diluted sample in buffer was assessed for the activity of phosphatases (in 100 mM acetic acid pH 4.5 for acid phosphatase or 100 mM boric acid pH 9.8 for alkaline phosphatase) using 50 μL of the substrate p-nitrophenyl phosphate (8 mM) and monitoring the production of p-nitrophenol at 405 nm after its alkalinization (with 50 μL 4M NaOH). In addition, the activities of β-galactosidase and lipase were measured with the same experimental conditions by the generation of nitrophenol from the catalysis of o-nitrophenyl-β-galactoside or p-nitrophenyl butyrate, respectively, but in phosphate buffer pH 7.2. […] Protein was quantified by an ultrasensitive Bradford protocol to normalize the results [44].

Oryzias latipes = test system: Oryzias latipes; parameters: method as in PMID 27234514, PMID 19336980; conditions: after 24 h of exposure; ref [3],[5]; cited from earlier work
acid phosphatase (ACP) = assay: Acid phosphatase activity in daphnid homogenate after chronic/transgenerational exposure; assay type: in vivo, Daphnia magna
Protocol: as §3, §4

Daphnia magna [3] = assay: Acute toxicity (immobilization) of neonates, 24 h toxicity curves
Protocol: Daphnids were cultured under a 16 h:8 h of light:dark photoperiod at 20 °C in OECD media (final concentrations 0.29 g CaCl2·2H2O/L, 0.123 g MgSO4·7H2O/L, 0.065 g NaHCO3/L, 0.0058 g KCl/L, 2 μg Na2SeO3/L, pH 7.7) [28]. […] Neonates (<24 h) were collected from the third brood of their mothers and used for experiments. To assess toxicity, 15 neonates were exposed to each NSAID separately, and their 1:1 mixture in a final volume of 50 mL OECD media with four replicates per concentration tested. […] For toxicity, the OECD guidelines state that at least 40 animals (preferably in four groups of 10 animals should be used at each test concentration); however, in our study, we exceeded that number to 60 animals. Toxicity curves were plotted for 24 h exposures, and EC values were calculated using the four-parameter logistic (4PL) model, following the equation Span = Top − Bottom and Y = Bottom + (Top − Bottom)/(1 + 10^((LogIC50 − X) × HillSlope)), using the GraphPad software. The parameters top and bottom were commonly fixed to 100 and 0, accordingly. Mortality in daphnids was assessed as their immobilization [27].

[4] = test system: male zebrafish (Danio rerio); parameters: method as in PMID 29027214; conditions: 96 h, ref [13]; cited from earlier work
Daphnia magna [5] = assay: Feeding assay (ingestion of fluorescent microparticles); assay type: in vivo; conditions: neonates, 1 mg/L for 24 h
Protocol: After 24 h, twenty […] transferred in a 12-well plate with 6 mL OECD containing the carboxylate-modified polystyrene, fluorescent red microparticles (2.0 μm mean particle size) at a concentration of 13 mg/L. The animals were exposed to the microplastic for up to 90 min, and media was collected every 15 min to estimate the removed microparticles by fluorescence at Ex 560 Em 590 nm using a TECAN plate reader. The concentration of microparticles in the media was optimized to ensure an excess of microparticles for the accurate quantification of ingestion. Furthermore, we have extensively tested these particles, which show no toxicity to the […] for the short exposure periods used. We performed control experiments with neonates, as they would be more sensitive, for even up to 10 h to microplastics at even higher concentrations (up to 52 mg/L), and all animals from all experiments following the feeding assay were alive and healthy. Fluorescence was expressed to the amount of ingested microparticles using a standard curve. To confirm the ingestion of microparticles in the gut of […], animals were imaged with a stereoscope and fluorescence microscopy using the TRITC filter for carboxyl functionalized particles. […] The animals were fed daily with 2 mL of fresh algae (Chlamydomonas reinhardtii) with a concentration of 6 million cells/mL. […]

[6] = 1 mg/L, age 7 days, first generation
[7] = 1 mg/L, age 14 days, first generation
[8] = 1 mg/L, age 21 days, 2nd generation
[9] = 1 mg/L, age 21 days, first generation
[10] = age 21 days, 3rd generation recovery in clean OECD media after two generations at 1 mg/L
[11] = neonates, 24 h exposure, immobilization

For `COc1ccc2c(c1)c(CC(=O)O)c(C)n2C(=O)c1ccc(Cl)cc1` [Indomethacin], the lethal concentration (Thamnocephalus platyurus) is listed as 16.14 mg/L, the PEP enzyme activity (peptidase (PEP); [6]) is listed as 27.26 ± 5.01 units/mg protein and the PEP enzyme activity (peptidase (PEP); [7]) is listed as 1.94 ± 0.06 units/mg protein. The PEP enzyme activity (peptidase (PEP); [8]) was 6.81 ± 0.26 units/mg protein, the “change of PEP activity compared with DMSO” value (peptidase (PEP); [8]) was −14% and the PEP enzyme activity (peptidase (PEP); [9]) was 10.82 ± 0.6 units/mg protein. The “change of PEP activity compared with DMSO” value (peptidase (PEP); [9]) was “+16%”, the PEP enzyme activity (peptidase (PEP); [10]) was 5.33 ± 0.49 units/mg protein and the “change of β-gal activity compared with DMSO” value (β-galactosidase (β-gal); [6]) was −40%. For the same molecule, the β-gal enzyme activity (β-galactosidase (β-gal); [6]) was 0.91 ± 0.14 units/mg protein, the β-gal enzyme activity (β-galactosidase (β-gal); [7]) was 2.23 ± 0.39 units/mg protein and the β-gal enzyme activity (β-galactosidase (β-gal); [8]) was 4.7 ± 0.23 units/mg protein. The “change of β-gal activity compared with DMSO” value (β-galactosidase (β-gal); [9]) was “+11%”, the β-gal enzyme activity (β-galactosidase (β-gal); [9]) was 5.93 ± 0.19 units/mg protein and the β-gal enzyme activity (β-galactosidase (β-gal); [10]) was 5.03 ± 0.44 units/mg protein. The ALP enzyme activity [1, 6] was 6.22 ± 0.21 units/mg protein, the “change of ALP activity compared with DMSO” value [1, 6] was −13% and the ALP enzyme activity [1, 7] was 3.05 ± 0.29 units/mg protein. For the same molecule, the ALP enzyme activity [1, 8] was 3.8 ± 0.18 units/mg protein, the ALP enzyme activity [1, 9] was 5.05 ± 0.17 units/mg protein and the ALP enzyme activity [1, 10] was 4.16 ± 0.24 units/mg protein. It also gave a GST enzyme activity [2, 6] of 107.9 ± 11.6 munits/mg protein, a GST enzyme activity [2, 7] of 144.7 ± 5.4 munits/mg protein and a GST enzyme activity [2, 8] of 94.6 ± 2.9 munits/mg protein. The “change of GST activity compared with DMSO” value [2, 8] was −9%, the GST enzyme activity [2, 9] was 52.3 ± 1.5 munits/mg protein and the GST enzyme activity [2, 10] was 154.7 ± 4.2 munits/mg protein. The “patients with adverse effects” value (patients) was 30–60%, the lethal concentration (D. magna) was 22.38 mg/L and the LIP enzyme activity (lipase (LIP); [6]) was 72.94 ± 11.09 units/mg protein. For the same molecule, the “change of LIP activity compared with DMSO” value (lipase (LIP); [6]) was −47%, the LIP enzyme activity (lipase (LIP); [7]) was 193.84 ± 25.81 units/mg protein and the LIP enzyme activity (lipase (LIP); [8]) was 56.41 ± 3.09 units/mg protein. For the same molecule, the “change of LIP activity compared with DMSO” value (lipase (LIP); [8]) was −15%, the LIP enzyme activity (lipase (LIP); [9]) was 90.86 ± 0.42 units/mg protein and the LIP enzyme activity (lipase (LIP); [10]) was 51.19 ± 2.04 units/mg protein. For the same molecule, the lethal concentration (Oryzias latipes) was 81.92 mg/L, the ACP enzyme activity (acid phosphatase (ACP); [6]) was 6.82 ± 0.51 units/mg protein and the ACP enzyme activity (acid phosphatase (ACP); [7]) was 6.02 ± 0.71 units/mg protein. For the same molecule, the ACP enzyme activity (acid phosphatase (ACP); [8]) was 2.67 ± 0.15 units/mg protein, the ACP enzyme activity (acid phosphatase (ACP); [9]) was 2.84 ± 0.13 units/mg protein and the “change of ACP activity compared with DMSO” value (acid phosphatase (ACP); [9]) was −10%. For the same molecule, the ACP enzyme activity (acid phosphatase (ACP); [10]) was 3.21 ± 0.28 units/mg protein, the EC50 (Daphnia magna [3]; Daphnia magna, 24 h) was 17.5 µg/mL (≈ 48.8 µM) and the EC1 (Daphnia magna [3]; [11]) was 6.61 mg/L. The EC5 (Daphnia magna [3]; [11]) was 9.37 mg/L, the EC10 (Daphnia magna [3]; [11]) was 10.97 µg/mL (≈ 30.7 µM) and the EC20 (Daphnia magna [3]; [11]) was 13.02 µg/mL (≈ 36.4 µM). The EC50 [4] was 76.30 µg/mL (≈ 213 µM) and the “reduction of feeding rate compared to DMSO” value (Daphnia magna [5]) was 35%.
